The target of this experiment is T1, human leukocyte elastase (HLE) (Homo sapiens, UniProt P08246).
T1 sequence (P08246 30-267): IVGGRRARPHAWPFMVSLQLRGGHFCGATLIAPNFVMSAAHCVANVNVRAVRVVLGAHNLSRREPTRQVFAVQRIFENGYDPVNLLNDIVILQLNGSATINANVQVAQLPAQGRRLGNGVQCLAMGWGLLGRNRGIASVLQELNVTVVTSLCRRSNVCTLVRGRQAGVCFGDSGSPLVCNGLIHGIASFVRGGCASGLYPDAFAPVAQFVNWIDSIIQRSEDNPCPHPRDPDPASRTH
The experiment in a line: Inhibition of human leukocyte elastase (HLE) on methoxy-succinyl-alanyl-alanyl-prolyl-valine-p-nitroanilide, Ki (Inhibition Measurements). The experiment is classed as biochemical. Particulars: kinetic determination of dissociation constant; substrate methoxy-succinyl-alanyl-alanyl-prolyl-valine-p-nitroanilide. The method, then:
The potency of a Compound to act as an inhibitor of human leukocyte elastase (HLE) on the low molecular weight peptide substrate methoxy-succinyl-alanyl-alanyl-prolyl-valine-p-nitroanilide is determined as described in U.S. Pat. No. 4,910,190. The potency of an inhibitor is evaluated by obtaining a kinetic determination of the dissociation constant, Ki, of the complex formed from the interaction of the inhibitor with HLE. If a Compound is found to be a "slow-binding" inhibitor of HLE, special methods of analysis to accurately determine Ki values for the inhibition of HLE are carried out as described in U.S. Pat. No. 4,910,190.

Take `CC(C)C(NC(=O)Cn1ccc2c(=O)n(CC(=O)OCc3ccccc3)c(=O)[nH]c2c1=O)C(=O)C(F)(F)F` (stereo not shown) [Example 13]: the Ki (in general, a measure of affinity in units of concentration, obtained from inhibition or displacement) amounted to 44 nM.

For the origin of these results see US5532366A, “Heterocyclic amides” (Zeneca Limited, priority 1992, dated 1996).
